This is an account of results in PubChem BioAssay (NCI).

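Growth conditions: 96-well plates. Treatment: test compound, 48 hours, 5 concentrations. Analysis: linear interpolation between bracketing concentrations; unreached endpoints set to highest concentration. TGI: total growth inhibition.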 A value given as a limit tells only on which side of the number the result lay.

Holding throughout (assay): DTP human tumour cell line panel, 48 h
Assay [1] relates to M19-MEL melanoma.
The test system of assay [2] is OVCAR-4 ovarian.
Assay [3] concerns CAKI-1 renal.
The test system of assay [4] is SK-OV-3 ovarian.
Assay [5] relates to XF 498 CNS.
Assay [6] has as its system HL-60(TB) leukemia.
The subject of assay [7] is KM20L2 colon.
Assay [8] concerns LXFL 529 NSCLC.
For assay [9], the system named is TK-10 renal.
Assay [10] relates to IGROV1 ovarian.
Assay [11] relates to LOX IMVI melanoma.
In assay [12] the test system is SR leukemia.
For assay [13], the system named is SK-MEL-2 melanoma.
The subject of assay [14] is OVCAR-8 ovarian.
The test system of assay [15] is HOP-92 NSCLC.
For assay [16], the system named is SNB-75 CNS.
Assay [17] has as its system SN12C renal.
Assay [18] concerns U251 CNS.
For assay [19], the system named is EKVX NSCLC.
Assay [20] deals with NCI-H460 lung.

For the molecule `O=[N+]([O-])c1ccc(-c2ccc(-c3csc(Nc4ccccn4)n3)o2)cc1`, the concentration for total growth inhibition (TGI) (commonly the concentration giving total growth inhibition) was above 100 µM in assay [1]; 50 µM in assay [2]; above 100 µM in [3]; above 100 µM in [4]; 49.9 µM in [5]; above 100 µM in assay [6]. Also, the TGI in [7] was above 100 µM; in assay [8], 76.8 µM; in assay [9] it was 56.1 µM; in [10] it was above 100 µM; in assay [11], above 100 µM; in [12], above 100 µM. Further, the TGI was above 100 µM in assay [13]; above 100 µM in assay [14]; above 100 µM in assay [15]; above 100 µM in [16]; above 100 µM in assay [17]; 28.5 µM in [18].

Consider `CCC(C(=O)c1ccc(OC)c(OC)c1)N(C(=O)C(F)(F)F)C(C)c1ccccc1` (configuration not stated), for which the TGI in assay [19], in [3], in assay [4], in assay [6], in [9] and in assay [10] was above 100 µM throughout. The total growth inhibition concentration (TGI) in assay [11], in assay [12], in assay [14], in assay [18] and in assay [20] was above 100 µM each time.

`O=C1C(Cl)N(c2ccccc2[N+](=O)[O-])C1c1c[nH]c2ccccc12` (configuration not stated): the TGI in assay [1], in [2], in [19], in assay [4], in assay [5] and in [6] was above 100 µM in each case. Further, the TGI in assay [7], in assay [8], in assay [9], in [10], in [12] and in assay [13] was above 100 µM in each case. Further, the concentration for total growth inhibition (TGI) in [14], in assay [15], in assay [16], in assay [17], in [18] and in [20] was above 100 µM throughout.
